Assay [1] deals with BRCA wild-type DLD-1 cells. The assay is described as follows: Anti-proliferative activity against cells (CCK8): DLD-1. The following applies: Homo sapiens, 72 h + 96 h culture. In kind it is cell-based. The method, then:
BRCA wild-type DLD-1 cells were cultured in an RPMI-1640 medium containing 10% fetal bovine serum, 100 U/mL penicillin, and 100 µg/mL streptomycin, and incubated in an incubator with 5% saturated CO2 at 37 °C. When the cells grew to 80% confluence, they were collected, centrifuged at 300 g for 10 min, and then plated onto a 96-well plate at 1000 cells/well. After 24 h, different final concentrations (0 µM, 1 µM, and 10 µM) of PARPi were added, and the cells were cultured for another 72 h. The cells were subjected to medium exchange treatment (re-supplemented with PARPi at the same final concentrations) and then cultured for another 96 h. The 96-well plate was taken out.

The target of assay [2] is T1, PARP1 (Homo sapiens, UniProt P09874).
T1 construct: purchased BPS 80501
T1 sequence (P09874 whole entry): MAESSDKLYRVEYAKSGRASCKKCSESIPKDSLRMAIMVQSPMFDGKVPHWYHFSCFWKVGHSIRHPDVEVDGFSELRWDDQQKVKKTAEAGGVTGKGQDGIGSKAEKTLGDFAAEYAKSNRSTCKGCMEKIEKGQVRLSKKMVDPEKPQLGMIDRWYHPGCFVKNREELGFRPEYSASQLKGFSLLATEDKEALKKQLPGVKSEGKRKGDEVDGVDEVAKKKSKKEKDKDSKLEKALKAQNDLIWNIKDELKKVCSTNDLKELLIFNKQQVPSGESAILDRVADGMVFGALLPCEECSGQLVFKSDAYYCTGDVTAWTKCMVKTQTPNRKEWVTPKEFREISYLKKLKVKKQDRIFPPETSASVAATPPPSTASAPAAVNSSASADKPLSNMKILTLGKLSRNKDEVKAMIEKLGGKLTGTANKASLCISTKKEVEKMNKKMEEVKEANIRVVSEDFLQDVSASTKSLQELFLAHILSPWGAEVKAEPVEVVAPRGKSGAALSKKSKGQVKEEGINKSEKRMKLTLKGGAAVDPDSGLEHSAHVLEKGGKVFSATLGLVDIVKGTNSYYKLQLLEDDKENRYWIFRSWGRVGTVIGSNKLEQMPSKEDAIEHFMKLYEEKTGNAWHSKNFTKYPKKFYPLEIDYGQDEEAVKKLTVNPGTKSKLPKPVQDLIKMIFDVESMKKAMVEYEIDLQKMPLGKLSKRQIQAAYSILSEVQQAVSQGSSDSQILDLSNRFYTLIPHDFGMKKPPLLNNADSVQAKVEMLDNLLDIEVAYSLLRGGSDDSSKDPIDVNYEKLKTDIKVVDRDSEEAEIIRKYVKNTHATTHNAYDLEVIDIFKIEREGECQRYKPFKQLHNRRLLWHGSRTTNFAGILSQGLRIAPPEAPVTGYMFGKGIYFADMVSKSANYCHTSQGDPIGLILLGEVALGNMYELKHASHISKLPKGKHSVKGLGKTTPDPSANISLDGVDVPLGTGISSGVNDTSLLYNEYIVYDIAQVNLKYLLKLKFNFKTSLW
Briefly: PARP1 enzyme assay (histone-coated plate, chemiluminescence). In kind it is biochemical. To be noted: PARP1 0.02 nM, DNA 0.8 nM, NAD+ 3.5 µM; read-out: PARP-1 IC50. How it is done:
1.1.1. Buffer preparation: PBST: 1× PBS, 0.05% Tween-20; blocking buffer: 1× PBS, 0.05% Tween-20, 5% BSA; reaction buffer: 50 mM Tris-HCl (pH 7.5), 0.005% Tween-20, 0.01% BSA.
1.1.2. Coating: A 50 ng/mL Histone coating solution was prepared with 1× PBS and then transferred to a 384-well reaction plate at 25 µL/well. The plate was coated at 4 °C overnight.
1.1.3. Washing: After the coating was completed, the coating solution was discarded, and the plate was washed with the PBST solution. The method was as follows: PBST was transferred to the 384-well reaction plate at 50 µL/well, and the plate was left to stand for 5 min. The washing solution was then discarded, and the plate was refilled. The washing step was repeated 3 times. Finally, the reaction plate was patted dry and left for the next step of blocking.
1.1.4. Blocking: The blocking buffer was transferred to the 384-well reaction plate at 50 µL/well, and the plate was left to stand for 1 h.
Washing: After the blocking was completed, the blocking buffer was discarded, and the plate was washed 3 times with the PBST solution according to the method in step 2. Finally, the reaction plate was patted dry.
1.1.5. A 1000-fold solution of a compound was prepared and then transferred at 1 µL/well to a 96-well plate containing 199 µL of the reaction buffer. The mixture was well mixed, and then the well mixed compound solution was transferred to the 384-well reaction plate at 5 µL/well. 1.1.6. A 25/10-fold PARP1-DNA solution was prepared with the reaction buffer and then transferred to the 384-well reaction plate at 10 µL/well. For the negative control wells, 10 µL
of the DNA solution was transferred. The final concentrations of PARP1 and DNA were 0.02 nM and 0.8 nM, respectively.
1.1.9. Washing: After the reaction was completed, the reaction solution was discarded, and the plate was washed 3 times with the PBST solution according to the method in step 2. Finally, the reaction plate was patted dry.
1.1.10. A primary antibody (anti-Poly/Mono-ADP Ribose Rabbit mAb) was diluted 2000-fold with the blocking buffer and then added at 20 µL/well.
1.1.11. Washing: The primary antibody was discarded, and the plate was washed 3 times with the PBST solution according to the method in step 2. Finally, the reaction plate was patted dry.
1.1.12. A secondary antibody (anti-rabbit IgG, HRP-linked Antibody) was diluted 2000-fold with the blocking buffer and then added at 20 µL/well.
1.1.13. Washing: The secondary antibody was discarded, and the plate was washed 3 times with the PBST solution according to the method in step 2. Finally, the reaction plate was patted dry.
1.1.14. Color development: Femto-ECL Substrate A and Femto-ECL Substrate B were mixed at a ratio of 1:1, and the mixture was transferred to the 384-well reaction plate at 25 µL/well. 1.1.15. Reading: The chemiluminescence values (RLU) were measured using Envision.

In assay [3] the test system is BRCA-mutated MDA-MB-436 cells. The assay is described as follows: Anti-proliferative activity against cells (CCK8): MDA-MB-436. It is filed as cell-based. The following applies: Homo sapiens, 72 h + 96 h culture.

Molecules are shown by their SMILES.

This note sets out measurements from EP4768487A1, “FUSED LACTAM RING COMPOUND AND USE THEREOF” (Chengdu Zenitar Biomedical Technology Co., Ltd., priority 2023, dated 2025).

As a reminder, the IC50 is the concentration at which inhibition is half-maximal. Take `CNC(=O)c1ccc(N2CCN(CC3Cc4[nH]c(=O)c(C5CC5)cc4CO3)CC2)c(F)n1` (centres unmarked) [Example 42, 5-(4-((3-Cyclopropyl-2-oxo-1,5,7,8-tetrahydro-2H-pyrano[4,3-b]pyridin-7-yl)methyl)piperazin-1-yl)-6-fluoro-N-methylpicolinamide]: the IC50 in assay [1] is > 1000 nM; in assay [2], 50 to 500 nM.

As for `CNC(=O)c1ccc(C2=CCN(C[C@H]3CCc4nc(C)c(=O)[nH]c4C3)CC2)c(F)n1` [Example 46, (S)-2-Fluoro-N-methyl-1'-((2-methyl-3-oxo-3,4,5,6,7,8-hexahydroquinoxalin-6-yl)methyl)-1', 2',3',6'-tetrahydro-[3,4'-bipyridine]-6-carboxamide], the half-maximal inhibitory concentration (IC50) in assay [1] was > 1000 nM; in assay [3] it was 6.7 nM; in assay [2], ≤ 50 nM.

For `Cc1cc2c([nH]c1=O)CC(CN1CCN(c3ccc(C(=O)NC4CC4)nc3F)CC1)OC2` (centres unmarked) [Example 41, N-Cyclopropyl-6-fluoro-5-(4-((3-methyl-2-oxo-1,5,7,8-tetrahydro-2H-pyrano[4,3-b]pyridin-7-yl)methyl)piperazin-1-yl)picolinamide], the IC50 was > 1000 nM in assay [1], 16 nM in assay [3] and 50 to 500 nM in assay [2].

With `CNC(=O)c1ccc(N2CCN(CC3Cc4[nH]c(=O)c(SC)cc4CO3)CC2)c(F)n1` (centres unmarked) [Example 96, 6-Fluoro-N-methyl-5-(4-((3-(methylthio)-2-oxo-1,5,7,8-tetrahydro-2H-pyrano[4,3-b]pyridin-7-yl)methyl)piperazin-1-yl)picolinamide], the IC50 in assay [1] is > 1000 nM; in assay [2], ≤ 50 nM.

For `CCc1cc2c([nH]c1=O)CC(CN1CCC(c3ccc(C(=O)NC)nc3F)CC1)OC2` (centres unmarked) [Example 60, 5-(1-((3-Ethyl-2-oxo-1,5,7,8-tetrahydro-2H-pyrano[4,3-b]pyridin-7-yl)methyl)piperidin-4-yl)-6-fluoro-N-methylpicolinamide], the IC50 was > 1000 nM in assay [1], 120 nM in assay [3] and 50 to 500 nM in assay [2].

Turning to `CCc1cc2c([nH]c1=O)CC(CN1CCN(c3ccc(C(=O)NC4CC4)nc3)CC1)OC2` (centres unmarked) [Compound 4, N-Cyclopropyl-5-(4-((3-ethyl-2-oxo-1,5,7,8-tetrahydro-2H-pyrano[4,3-b]pyridin-7-yl)methyl)piperazin-1-yl) picolinamide], the IC50 in assay [1] was > 1000 nM; in assay [3], 4 nM; in assay [2], ≤ 50 nM.

For the compound `CNC(=O)c1ccc(C2=CCN(CC3Cc4[nH]c(=O)c(Cl)cc4CO3)CC2)c(F)n1` (centres unmarked) [Example 63, 1'-((3-Chloro-2-oxo-1,5,7,8-tetrahydro-2H-pyrano[4,3-b]pyridin-7-yl)methyl)-2-fluoro-N-met hyl-1',2',3',6'-tetrahydro-[3,4'-bipyridine]-6-carboxamide], the IC50 is > 1000 nM in assay [1], 430 nM in assay [3] and 50 to 500 nM in assay [2].

For `CCc1cc2c([nH]c1=O)CC(CN1CCN(c3ccc(C(=O)NCC(F)F)nc3F)CC1)OC2` (centres unmarked) [Example 49, N-(2,2-Difluoroethyl)-5-(4-((3-ethyl-2-oxo-1,5,7,8-tetrahydro-2H-pyrano[4,3-b]pyridin-7-yl)methyl)piperazin-1-yl)-6-fluoropicolinamide], the results for the IC50 in assay [1], in assay [3] and in assay [2] were > 1000 nM, 300 nM and ≤ 50 nM, respectively.

Regarding `CCc1cc2c([nH]c1=O)C[C@H](CN1CCN(c3ccc(C(=O)NC)nc3F)CC1)OC2` [Example 66, (R)-5-(4-((3-ethyl-2-oxo-1,5,7,8-tetrahydro-2H-pyrano[4,3-b]pyridin-7-yl)methyl)piperazin-1-yl)-6-fluoro-N-methylpicolinamide], the IC50 in assay [1] was > 1000 nM; in assay [3], 4.5 nM.

`CNC(=O)c1ccc2c(n1)COC[C@H]1CN(CC3Cc4[nH]c(=O)c(C)cc4CO3)CCN21` (stereo partly drawn) [Example 92, (4aR)-N-Methyl-3-((3-methyl-2-oxo-1,5,7,8-tetrahydro-2H-pyrano[4,3-b]pyridin-7-yl)methyl) -1,2,3,4,4a,5-hexahydro-7H-pyrazino[2,1-c]pyrido[3,2-e][1,4]oxazolidine-9-carboxamide]: the IC50 is > 1000 nM in assay [1] and ≤ 50 nM in assay [2].

On to `CNC(=O)c1ccc(C2=CCN(C[C@H]3CCc4nc(C5CC5)c(=O)[nH]c4C3)CC2)c(F)n1` [Example 56, (S)-1'-((2-Cyclopropyl-3-oxo-3,4,5,6,7,8-hexahydroquinoxaline-6-yl)methyl)-2-fluoro-N-met hyl-1',2',3',6'-tetrahydro-[3,4'-bipyridine]-6-carboxamide], for which the values for the IC50 in assay [1] and in assay [2] were > 1000 nM and ≤ 50 nM, respectively.

For the compound `CNC(=O)c1ccc(N2CCN(C[C@H]3CCc4nc(C5CC5)c(=O)[nH]c4C3)CC2)c(F)n1` [Example 57, (S)-5-(4-((2-Cyclopropyl-3-oxo-3,4,5,6,7,8-hexahydroquinoxaline-6-yl)methyl)piperazin-1-yl)-6-fluoro-N-methylpicolinamide], the half-maximal inhibitory concentration (IC50) in assay [1] is > 1000 nM; in assay [2], ≤ 50 nM.

With `CNC(=O)c1ccc(N2CCN(CC3Cc4[nH]c(=O)c(Br)cc4CO3)CC2)c(F)n1` (centres unmarked) [Example 40, 5-(4-((3-Bromo-2-oxo-1,5,7,8-tetrahydro-2H-pyrano[4,3-b]pyridin-7-yl)methyl)piperazin-1-yl)-6-fluoro-N-methylpicolinamide], the IC50 is > 1000 nM in assay [1] and ≤ 50 nM in assay [2].

With `CNC(=O)c1ccc(N2CCN(C(C)[C@H]3CCc4nc(C)c(=O)[nH]c4C3)CC2)c(F)n1` (stereo partly drawn) [Example 71, (S)-6-Fluoro-N-methyl-5-(4-(1-(2-methyl-3-oxo-3,4,5,6,7,8-hexahydroquinoxalin-6-yl)ethyl)piperazin-1-yl)picolinamide], the IC50 was > 1000 nM in assay [1] and ≤ 50 nM in assay [2].

On to `CCc1nc2c([nH]c1=O)C[C@@H](CN1CCN(c3ccc(C(=O)NC)nc3F)CC1)CC2` [Example 48, (S)-5-(4-((2-Ethyl-3-oxo-3,4,5,6,7,8-hexahydroquinoxalin-6-yl)methyl)piperazin-1-yl)-6-fluor o-N-methylpicolinamide], for which the IC50 in assay [1] is > 1000 nM; in assay [2], ≤ 50 nM.

Regarding `CNC(=O)c1ccc(C2CCN(C[C@H]3CCc4nc(C)c(=O)[nH]c4C3)CC2)c(F)n1` [Example 80, (S)-6-Fluoro-N-methyl-5-(1-((2-methyl-3-oxo-3,4,5,6,7,8-hexahydroquinoxalin-6-yl)methyl)piperidin-4-yl)picolinamide], the IC50 in assay [1] was > 1000 nM; in assay [3], 300 nM.

On to `CCc1cc2c([nH]c1=O)C[C@@H](CN1CCN(c3ccc(C(=O)NC)nc3F)CC1)OC2` [Example 65, (S)-5-(4-((3-Ethyl-2-oxo-1,5,7,8-tetrahydro-2H-pyrano[4,3-b]pyridin-7-yl)methyl)piperazin-1-yl)-6-fluoro-N-methylpicolinamide], for which the IC50 in assay [1] is > 1000 nM; in assay [3] it was 0.7 nM.

For the compound `COC1CC(NC(=O)c2ccc(N3CCN(CC4Cc5[nH]c(=O)c(C)cc5CO4)CC3)c(F)n2)C1` (centres unmarked) [Example 79, 6-Fluoro-N-(3-methoxycyclobutyl)-5-(4-((3-methyl-2-oxo-1,5,7,8-tetrahydro-2H-pyrano[4,3-b]pyridin-7-yl)methyl)piperazin-1-yl)picolinamide], the values for the IC50 in assay [1] and in assay [3] were > 1000 nM and 130 nM, respectively.

For the compound `CNC(=O)c1ccc(N2CCN(CC3COc4cc(Cl)c(=O)[nH]c4C3)CC2)c(F)n1` (centres unmarked) [Example 86, 5-(4-((7-Chloro-6-oxo-3,4,5,6-tetrahydro-2H-pyrano[3,2-b]pyridin-3-yl)methyl)piperazin-1-yl)-6-fluoro-N-methylpicolinamide], the concentration for half-maximal inhibition (IC50) was > 1000 nM in assay [1] and 50 to 500 nM in assay [2].
